Laboratory results as given in patent US6369101B1, “Therapeutic method to treat herpes virus infection” (Regents of the University of Minnesota, priority 1999, dated 2002).
Converted amounts (≈) assume the structure as drawn.

Legend:
[1] = tested on: Human Cytomegalovirus; experiment: CPE inhibition in stationary cells (visual), HCMV in HFF cells; type: cell-based; details: test compounds in DMSO
[2] = tested on: HSV-2 (MS Strain); experiment: Cutaneous HSV-2 infection in rats, topical ointment; type: in vivo, rat; details: topical 2% ointment twice daily for 3 days
[3] = tested on: Mouse Cytomegalovirus; experiment: CPE inhibition in stationary cells (visual), MCMV in MEF cells; type: cell-based; details: test compounds in DMSO
[4] = tested on: Varicella-Zoster Virus; experiment: CPE inhibition in stationary cells (visual), VZV in HFF cells; type: cell-based; details: test compounds in DMSO
[5] = tested on: MEF cells; experiment: CC50 in MEF cells (Table 3); type: cell-based; details: Mouse Cytomegalovirus section of Table 3
[6] = tested on: Human laryngeal epithelial carcinoma cells (HEp-2); experiment: Cytotoxicity in HEp-2 cells; type: cell-based
[7] = tested on: HSV-2 strain G; experiment: CPE inhibition, HSV-2 strain G in HEp-2 cells; for Cytopathic Effect (CPE) Inhibition HSV-2 Strain G: key: +++ = Complete cytopathic effect; ++ = Moderate cytopathic effect; + = Minimum cytopathic effect; − = No cytopathic effect; type: cell-based, herpes simplex virus type 2; details: for Cytopathic Effect (CPE) Inhibition HSV-2 Strain G: conc. per compound (ng/ml)
[8] = tested on: HSV-2 (MS strain); experiment: Vaginal HSV-2 (MS) infection in guinea pigs, topical ointment; type: in vivo, guinea pig
Protocol: Female Hartley outbred guinea pigs 26 days old and weighing approximately 350 to 400 grams each were obtained from Charles River Breeding Labs, Wilmington, Mass. The animals were housed singly and given feed and water ad lib.
2% Betulin and allobetulin ointment were prepared aseptically in polyethylene glycol (PEG) as ointment base and stored at room temperature until used.
Female guinea pigs weighing 200 g were inoculated intravaginally with HSV-2 (MS strain). One hour before viral inoculation the animals were swabbed using Dacron-polyester tipped applicator moistened in sterile saline to remove vaginal secretions. The animals were then infected with one drop of HSV-2 suspension containing 1×10^4 pfu, and the surface of the vaginal mucosa was slightly scarified with a sterile Greer Derma Pick® Skin Testing System (Greer Labs, Lenoir, N.C.).
The treatment of infected guinea pigs was started 18 hours after infection and continued twice daily for 3 days. […] Each experiment included uninfected control, infected and placebo controls. […] The swabs were stored at −80° C. until analyzed. The virus content of the specimens was measured by plaque assay in HEp-2 cells and the mean virus titer was calculated. […] The variable assessed was typical HSV vesicle formation, size, number and whether confluent, induration at the site of infection and scab formation.

[9] = tested on: Epstein-Barr Virus; experiment: VCA expression in EBV-infected Daudi cells; details: Epstein-Barr Virus, Daudi cells, VCA; test compounds in DMSO
Description: Raji is a Burkitt's lymphoma cell line containing 60 EBV genome/cell, and was the primary cell used for screening antiviral activity against EBV early antigen (EA) expression. […] It spontaneously expresses EBV EA in 0.25-0.5% of the cells. It was used in follow-up studies to confirm activity. These cell lines respond to superinfection by EBV by expressing EA-diffuse component EA (D), EA restricted component EA (R), and viral capsid antigen (VCA). […] The cultures were fed twice weekly and the cell concentration was adjusted to 3×10^5/ml. The cells were kept at 37° C. in humidified atmosphere with 5% CO2.
Cells were infected with the P3HR-1 strain of HBV and the test compound was added after adsorption (45 minutes at 37° C.) and washing of the cell cultures. The cultures were incubated for two days in complete medium to allow viral gene expression. Following the 48 hours of incubation, the numbers of cells of each sample was counted and smears were made. Monoclonal antibodies to the different EA components and VCA were then added to the cells and then incubated and washed. This is followed by a fluorescein conjugated rabbit anti-mouse IgG antibody, and the number of fluorescence cells in the smear were counted. The total number of cells in the cultures positive for EA or VCA were then calculated and compared.

[10] = tested on: Daudi cells; experiment: CC50 in Daudi cells (Table 3); type: cell-based; details: Daudi cells, Epstein-Barr Virus section of Table 3
Protocol: Raji is a Burkitt's lymphoma cell line containing 60 EBV genome/cell, and was the primary cell used for screening antiviral activity against EBV early antigen (EA) expression. Daudi is a low level producer that contains 152 EBV genome copies/cell. It spontaneously expresses EBV EA in 0.25-0.5% of the cells. It was used in follow-up studies to confirm activity. […] All cell lines were maintained in RPMI-1640 medium supplemented with 10% FCS, L-glutamine and 100 μg/ml gentamicin. The cultures were fed twice weekly and the cell concentration was adjusted to 3×10^5/ml. The cells were kept at 37° C. in humidified atmosphere with 5% CO2.

EC50 [9] [ng/mL]	Compound	EC50 [1] [ng/mL]	effect on cutaneous HSV-2 infection (in words) [2]	EC50 [3] [ng/mL]	EC50 [4] [ng/mL]	CC50 [5] [ng/mL]	cytotoxicity (in words) ([6]; HEp-2 (human epithelial) cells)	Cell Cytotoxicity ([6]; HEp-2 cells, conc. per compound (ng/ml))	Cytopathic Effect (CPE) Inhibition HSV-2 Strain G [7]	anti HSV-2 activity (in words) ([7]; qualitative CPE inhibition assay)	effect on vaginal HSV-2 infection (in words) ([8]; 2% ointment twice daily for 3 days beginning 18 hours after infection)	typical lesions and virus content in the infected vaginal area ([8]; by 6 to 8 days, 2% ointment twice daily for 3 days)	CC50 [10] [µg/mL]
	C=C(C)[C@@H]1CC[C@]2(CO)CC[C@]3(C)[C@H](CC[C@@H]4[C@@]5(C)CC[C@H](O)C(C)(C)[C@@H]5CC[C@]43C)[C@@H]12 [Betulin, lup-20(29)-ene-3β, 28-diol, reference compound]	2.9 (≈ 0.00655 µM)	significant effect	>20.0	>4.0	80.0 (≈ 0.181 µM)	less cytotoxicity	−	+	significant anti HSV-2 activity	Significant effect	decreased significantly	
1400	acycloguanosine [Acyclovir, reference compound]								+++				>100
